We go through two molecules from patent publication US20030157583A1, “Methods for determining squalene synthase activity” (priority 2001, published 2003).

Series [1] deals with T1, truncated squalene synthase (tSqS) (Arabidopsis thaliana, UniProt P53799).
T1 sequence (P53799 1-388 limits assumed): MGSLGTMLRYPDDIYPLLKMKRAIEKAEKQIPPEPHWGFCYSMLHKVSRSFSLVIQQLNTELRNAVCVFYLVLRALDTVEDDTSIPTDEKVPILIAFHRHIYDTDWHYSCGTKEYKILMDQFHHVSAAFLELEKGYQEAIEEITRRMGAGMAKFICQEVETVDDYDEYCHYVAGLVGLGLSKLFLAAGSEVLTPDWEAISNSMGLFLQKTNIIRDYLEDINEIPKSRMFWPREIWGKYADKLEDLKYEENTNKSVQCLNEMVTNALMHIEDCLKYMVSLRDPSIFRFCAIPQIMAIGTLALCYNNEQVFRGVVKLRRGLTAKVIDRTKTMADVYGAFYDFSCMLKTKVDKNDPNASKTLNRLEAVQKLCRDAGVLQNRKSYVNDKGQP
Briefly: biochemical. An excerpt: The conversion of the intermediate PSPP into squalene requires magnesium as a cofactor.

Substrate in series [2]: CC(C)=CCC/C(C)=C/CC/C(C)=C/CO[P@@](=O)(O)OP(=O)(O)O
Briefly: purified protein, by the assay type. Conditions: other: initial velocity vs FPP concentration, 50 ng tSqS, 100 μM NADPH, 10 mM MgCl2, 37° C., pH 7.5.

For `O=C(O)CN(CCN(CC(=O)O)CC(=O)O)CC(=O)O` [EDTA], the IC50 (in general, the concentration that gives 50% inhibition) in series [1] is approximately 8 mM.

B1: truncated squalene synthase (tSqS) (Arabidopsis thaliana) (protein)
chain: MGSLGTMLRYPDDIYPLLKMKRAIEKAEKQIPPEPHWGFCYSMLHKVSRSFSLVIQQLNTELRNAVCVFYLVLRALDTVEDDTSIPTDEKVPILIAFHRHIYDTDWHYSCGTKEYKILMDQFHHVSAAFLELEKGYQEAIEEITRRMGAGMAKFICQEVETVDDYDEYCHYVAGLVGLGLSKLFLAAGSEVLTPDWEAISNSMGLFLQKTNIIRDYLEDINEIPKSRMFWPREIWGKYADKLEDLKYEENTNKSVQCLNEMVTNALMHIEDCLKYMVSLRDPSIFRFCAIPQIMAIGTLALCYNNEQVFRGVVKLRRGLTAKVIDRTKTMADVYGAFYDFSCMLKTKVDKNDPNASKTLNRLEAVQKLCRDAGVLQNRKSYVNDKGQP
Take B1: the Km (as a rule, the concentration of substrate that gives half-maximal velocity) in series [2] is 42 µM.
